# B1: human IL13RA2 reference epitope IL13RA2-H (SEQ ID NO: 1, WLPFGFILI) (peptide)
# peptide: WLPFGFILI
# notes: 9-mer peptide derived from human IL13RA2; also called IL13RA2-H pAg
# B2: human FOXM1 reference epitope FOXM1-H2 (SEQ ID NO: 59, LMDLSTTPL) (peptide)
# peptide: LMDLSTTPL
# notes: 9-mer peptide derived from human FOXM1; also called FOXM1-H2 pAg
# B3: bacterial peptide FOXM1-B2 (SEQ ID NO: 75, LMDLSTTEV) (peptide)
# peptide: LMDLSTTEV
# notes: also called FOXM1-B2 pAg
# B4: bacterial peptide IL13RA2-B (SEQ ID NO: 18, FLPFGFILV) (peptide)
# peptide: FLPFGFILV
# notes: 9-mer synthetic peptide; also called IL13RA2-B pAg
# How the values were obtained:
# [1] = tested on: splenocytes (IFNγ secretion); assay: ELISPOT-IFNγ on splenocytes of β/A2/DR3 mice vaccinated with IL13RA2 peptides (Example 6); type: in vivo, mouse; conditions: for Percentage of ConA-induced response (mean+/-SEM), ELISPOT-IFNγ: β/A2/DR3 mice vaccinated s.c. d0 and d14 with labelled peptide (100 μg) + HHD-DR3 helper + IFA, d21
# Excerpt: Briefly, 14 β/A2/DR3 mice were assigned randomly (based on mouse sex and age) to two experimental groups, each immunized with a specific vaccination peptide (vacc-pAg) combined to a common helper peptide (h-pAg) (as outlined in Table 7 below). The vacc-pAg were compared in couples (group 1 vs. group 2). Thereby, both native and optimized versions of a single peptide were compared in each wave.
# (§1) The animals were immunized on day 0 (d0) with a prime injection, and on d14 with a boost injection. Each mouse was injected s.c. at tail base with 100 μL of an oil-based emulsion that contained: • 100 μg of vacc-pAg (25 μL of 4 mg/mL stock per mouse); • 150 μg of h-pAg (15 μL of 10 mg/mL stock per mouse); • 10 μL of PBS to reach a total volume of 50 μL (per mouse); • Incomplete Freund's Adjuvant (IFA) added at 1:1 (v:v) ratio (50 μL per mouse).
# (§2) Seven days after the boost injection (i.e. on d21), the animals were euthanized and the spleen was harvested. Splenocytes were prepared by mechanical disruption of the organ followed by 70 μm-filtering and Ficoll density gradient purification.
# The splenocytes were immediately used in an ELISPOT-IFNγ assay (Table 8). Experimental conditions were repeated in quadruplets, using 2*10^5 total splenocytes per well, and were cultured in presence of vacc-pAg (10 μM), Concanavalin A (ConA, 2.5 μg/mL) or medium-only to assess for their capacity to secrete IFNγ. The commercial ELISPOT-IFNγ kit (Diaclone Kit Mujrine IFNγ ELISpot) was used following the manufacturer's instructions, and the assay was performed after about 16 h of incubation.
# Spots were counted on a Grand ImmunoSpot® S6 Ultimate UV Image Analyzer interfaced to the ImmunoSpot 5.4 software (CTL-Europe). Data plotting and statistical analysis were performed with the Prism-5 software (GraphPad Software Inc.).
# The data were then normalized as a number of specific spots (the average counts obtained in the ‘medium only’ condition being subtracted) per 10^6 total T cells.
# The individual average values (obtained from the quadruplicates) were next used to plot the group average values (see FIG. 3A). As the functional capacity of T cells might vary from individual to individual, the data were also expressed as the percentage of the ConA response per individual (see FIG. 3B).
# U87 cells = assay: In vitro cytotoxicity of CD3+ T cells from immunized mice against U87-MG cells (Example 7); type: cell-based, human; conditions: CD3+ T cells of HHD/DR3 mice immunized with labelled peptide, 72 hours co-culture with U87-MG, annexin V/DAPI
# Procedure: Briefly, […] T cells from mice immunized with IL13RA2-H or […] were used. These cells were obtained after sorting of splenocyte from immunized mice and were placed on top of U87 cells (tumor cells expressing IL13RA2).
# In more detail, CD3^+ T cells were purified from splenocytes of HHD mice immunized with IL13RA2-H (WLPFGFILI, SEQ ID NO: 1) or IL13RA2-B (FLPFGFILV, SEQ ID NO: 18). To this end, B6 β2m^ko HHD/DR3 mice were injected s.c. at tail base with 100 μL of an oil-based emulsion containing vaccination peptide plus helper peptide plus CFA (complete Freund's adjuvant), at day 0 and day 14 as described in Example 6. On d21, i.e. seven days after the boost injection, the animals were euthanized and the spleen was harvested. Splenocytes were prepared by mechanical disruption of the organ. CD3+ purification was performed using the mouse total T cells isolation kit from Miltenyi biotec using the recommended procedure. Efficient purification of cells and viability was validated by cytometry using appropriate marker for viability, CD8, CD4, CD3, and CD45. […]
# 72 hours after co-culture of U87-MG cells and CD3+ T cells, all cells from the wells were harvested and specific U87-MG cell death was evaluated after immunostaining of CD45 negative cells with DAPI and fluorescent annexin V followed by cytometry analysis.
# HLA-A*0201 = biological target: T1, HLA-A*0201 (Homo sapiens, UniProt P04439, D140Y/D185E/D98H/E176V/E277Q/G131W/G231S/I119V/I121R/I166T/I218V/L300P/L318F/N151K/N90K/P208A/P217A/Q86G/Q94H/R138H/R169H/T345S); assay: In vitro affinity of peptides to HLA-A*0201 on T2 cell line (FACS, anti-HLA-A2 labeling); type: cell-based; conditions: T2 cells; for Mean fluorescence intensity: 16 hours
# T1 construct: human tumoral cell T2 which expresses the HLA-A*0201 molecule; endogenous in cells; host or cells: T2 cells (human, TAP1/2 negative)
# Excerpt: A method for in vitro testing is well-known to the skilled person. For example, the skilled person may use the experimental protocol as validated for peptides presented by HLA-A*0201 in Tourdot et al., A general strategy to enhance immunogenicity of low-affinity HLA-A2.1-associated peptides: implication in the identification of cryptic tumor epitopes. Eur J Immunol. 2000 December; 30(12):3411-21. In this context, a reference peptide, such as HIV pol 589-597, may be additionally used in the test. This enables calculation of the in vitro affinity relative to the binding observed with the reference peptide, e.g. by the following equation:
# Relative affinity=concentration of each peptide inducing 20% of expression of HLA-A*0201/concentration of the reference peptide inducing 20% of expression of HLA-A*0201
# (where 100% is the level of HLA-A*0201 expression detected with the reference peptide, e.g. HIV pol 589-597, for example used at a 100 μM concentration).
# The experimental protocol is similar to the one that was validated for peptides presented by the HLA-A*0201 (Tourdot et al., A general strategy to enhance immunogenicity of low-affinity HLA-A2.1-associated peptides: implication in the identification of cryptic tumor epitopes. Eur J Immunol. 2000 December; 30(12):3411-21). Affinity measurement of the peptides is achieved with the human tumoral cell T2 which expresses the HLA-A*0201 molecule, but which is TAP1/2 negative and incapable of presenting endogenous peptides.
# (§3) T2 cells (2.10^5 cells per well) were incubated with decreasing concentrations of peptides from 100 μM to 0.1 μM in a AIMV medium supplemented with 100 ng/μl of human β2m at 37° C. for 16 hours. Cells were then washed two times and marked with the anti-HLA-A2 antibody coupled to PE (clone BB7.2, BD Pharmagen).
# The analysis was performed by FACS (Guava Easy Cyte). For each peptide concentration, the geometric mean of the labeling associated with the peptide of interest was subtracted from background noise and reported as a percentage of the geometric mean of the […] labeling obtained for the reference peptide HIV pol 589-597 at a concentration of 100 μM. The relative affinity is then determined as follows:
# relative affinity=concentration of each peptide inducing 20% of expression of HLA-A*0201/concentration of the reference peptide inducing 20% of expression of HLA-A*0201.
# The experimental protocol, materials and methods correspond to those outlined in Example 4, with the only difference that the above mentioned antigenic peptides were used.
# as §3, with “β2 m” for “β2m”
# [2] = tested on: splenocytes (IFNγ secretion); assay: ELISPOT-IFNγ on splenocytes of BALB/c and C57BL/6 mice vaccinated with murine microbiota peptides (Example 16); type: in vivo, mouse; conditions: for T cell responses in the ELISPOT-IFNγ assay (in words): C57BL/6 mice (H2 Db B2) or BALB/c mice (H2 Ld B5), vaccination + OVA 323-339 + IFA, ex vivo stimulation with bacterial peptide; for T cell responses in the ELISPOT-IFNγ assay against the murine reference epitopes (in words): ex vivo stimulation with H2 Db M2 (C57BL/6) or H2 Ld M5 (BALB/c)
# Procedure: Briefly, BALB/c mice and C57BL/6 mice were assigned randomly to two experimental groups for each mouse strain, each group immunized with a specific vaccination peptide (vacc-pAg) combined to a common helper peptide (OVA 323-339 peptide; sequence: ISQAVHAAHAEINEAGR; SEQ ID NO: 164) and Incomplete Freund's Adjuvant (IFA) as shown in Table 23.
# as §1
# as §2, with “purification. Spleen weight, splenocyte number and viability were immediately assessed (Table 24).” for “purification.”
# The splenocytes were used in an ELISPOT-IFNγ assay (Table X). Experimental conditions were repeated in quadruplets, using 2*10^5 total splenocytes per well, and were cultured in presence of vacc-pAg (10 μM), mice peptide homolog, positive control (1 ng/ml of Phorbol 12-myristate 13-acetate (PMA) and 500 ng/ml of Ionomycin) or medium-only to assess for their capacity to secrete IFNγ.
# The commercial ELISPOT-IFNγ kit (Diaclone Kit Mujrine IFNγ ELISpot) was used following the manufacturer's instructions, and the assay was performed after about 16 h of incubation.
# Spots were counted on a Grand ImmunoSpor S6 Ultimate UV Image Analyzer interfaced to the ImmunoSpot 5.4 software (CTL-Europe). Data plotting and statistical analysis were performed with the Prism-5 software (GraphPad Software Inc.).
# [3] = biological target: T2, HLA-A*0201 molecule on human T2 cells (human); assay: T2 cell HLA-A*0201 binding assay, flow cytometry
# T2 construct: MHC class I molecule on T2 cells; also called HLA.A2.01
# Procedure: T2 cells (2.10⁵ cells per well) were incubated with decreasing concentrations of peptides from 100 μM to 0.1 μM in a AIMV medium supplemented with 100 ng/μl of human β2m at 37° C. for 16 hours.
# The analysis was performed by FACS (Guava Easy Cyte). […] The relative affinity is then determined as follows:
# [4] = ex vivo re-stimulation with IL13RA2-B pAg 10 μM
# [5] = ex vivo re-stimulation with IL13RA2-H pAg 10 μM
molecule,measurement,setting,value
FLPFGFILV (sequence variant) [SEQ ID NO: 18],"Percentage of ConA-induced response (mean+/-SEM), ELISPOT-IFNγ",[1]; [4],56.3%
same,"Percentage of ConA-induced response (mean+/-SEM), ELISPOT-IFNγ",[1]; [5],32.3%
same,T cell responses in the ELISPOT-IFNγ assay (in words),"[1]; β/A2/DR3 mice, vaccination, compared to IL13RA2-H-vaccinated animals",induced improved T cell responses
same,U87 cell lysis (in words),U87 cells,U87 cell lysis was observed
"WLPFGFILI (listed as Homo sapiens) [SEQ ID NO: 1, reference compound]","Percentage of ConA-induced response (mean+/-SEM), ELISPOT-IFNγ",[1]; [4],2.0%
same,"Percentage of ConA-induced response (mean+/-SEM), ELISPOT-IFNγ",[1]; [5],1.1%
same,U87 cell lysis (in words),U87 cells,not
"LMDLSTTPL (listed as Homo sapiens) [SEQ ID NO: 59, reference compound]",Concentration inducing 20% of expression of the HLA-A*0201,HLA-A*0201,12.6 µM
same,Binding to HLA-A*0201 (in words),HLA-A*0201; in vitro,bind
same,Mean fluorescence intensity,HLA-A*0201; peptide at 3 μM,0.9
same,Mean fluorescence intensity,HLA-A*0201; peptide at 25 μM,65.4
same,Mean fluorescence intensity,HLA-A*0201; peptide at 100 μM,77.6
"GAMLVGAVL (Sequence variant) [H2 Db B2, bacterial peptide from microbiota of C57BL/6 mice, variant of Stra6 peptide]",T cell responses in the ELISPOT-IFNγ assay (in words),[2],induced improved T cell responses
same,T cell responses in the ELISPOT-IFNγ assay against the murine reference epitopes (in words),[2],also induced improved T cell responses
"KPSVFLLTL (Sequence variant) [H2 Ld B5, bacterial peptide from microbiota of BALB/c mice, variant of Phtf1 peptide]",T cell responses in the ELISPOT-IFNγ assay (in words),[2],induced improved T cell responses
same,T cell responses in the ELISPOT-IFNγ assay against the murine reference epitopes (in words),[2],also induced improved T cell responses
B1,concentration inducing 20% of expression of HLA-A*0201,[3],100 µM
B2,concentration inducing 20% of expression of HLA-A*0201,[3],12.6 µM
B3,concentration inducing 20% of expression of HLA-A*0201,[3],6.7 µM
B4,concentration inducing 20% of expression of HLA-A*0201,[3],4.4 µM
